Measured values taken from article PMC11089506 (Journal of Medicinal Chemistry, 2024).
Counter-ions that a name gives are not always drawn. Like-named read-outs stand apart in the source and are kept apart here.

Columns and labels:
[1] = test system: 5-HT2AR, 5-HT2BR, and 5-HT2CR; conditions: cited from earlier work
human 5-HT2AR = human 5-HT2AR (Homo sapiens, UniProt P28223); assay: Ca2+/Fluo-4 assay, agonist mode, stable 5-HT2AR-HEK293 cells; conditions: for 5-HT2AR Rmax (%): % of the 5-HT Rmax; for 5-HT2AR Rmax ± S.E.M.: % of the 5-HT Rmax on the same 96-well plate
human 5-HT2CR [2] = target: T1, human 5-HT2CR (Homo sapiens, UniProt P28335); assay: Ca2+/Fluo-4 assay, agonist mode, stable 5-HT2CR-HEK293 cells; conditions: for 5-HT2CR Rmax (%): % of the 5-HT Rmax; for 5-HT2CR Rmax ± S.E.M.: % of the 5-HT Rmax on the same 96-well plate
human 5-HT2CR [3] = target: T1, human 5-HT2CR; assay: Ca2+/Fluo-4 assay, antagonist mode (5-HT EC90 as agonist), stable 5-HT2CR-HEK293 cells
MDR1 (P-gp) = assay: MDR1-MDCK II permeability assay; assay type: in vitro ADME; conditions: dog, MDCK-MDR1, pH 7.4
MDR1 = assay: MDR1-MDCK II permeability assay; assay type: in vitro ADME; conditions: dog, MDCK-MDR1, pH 7.4, Table S6
MDR1-MDCKII = assay: MDR1-MDCK II permeability assay; assay type: in vitro ADME; conditions: Table S6
human 5-HT2CR [4] = target: T1, human 5-HT2CR; assay: [125I]DOI competition binding assay
Protocol: (§1) Following incubation, the samples were filtered rapidly under vacuum through glass fiber filters (GF/B, Packard) presoaked with 0.3% polyethylenimine and rinsed several times with ice cold wash buffer (50 mM Tris-HCl, pH 7.4) using a 96-sample cell harvester (Unifilter, Packard). The filters were dried and then counted for radioactivity in a scintillation counter (Topcounter, Packard) using a scintillation cocktail (Microscint-0, Packard).

human 5-HT2BR = target: T2, human 5-HT2BR (Homo sapiens, UniProt P41595); assay: [125I]DOI competition binding assay
T2 construct: host or cells: HEK293 (membrane homogenates)
Protocol: as §1

[5] = read-out: 5-HT2AR EC50, Table 1, at least 3 independent experiments
[6] = 5-HT2CR EC50 (nM), Table 1, at least 3 independent experiments
[7] = 5-HT2CR pIC50 ± S.E.M., Table S2
[8] = 5-HT2AR EC50 (nM), Table 1, at least 3 independent experiments
[9] = read-out: 5-HT2CR EC50, Table 1, at least 3 independent experiments
[10] = read-out: 5-HT2AR EC50, Table 2, at least 3 independent experiments
[11] = read-out: 5-HT2CR EC50, Table 2, at least 3 independent experiments

human 5-HT2AR, sequence (P28223 whole entry): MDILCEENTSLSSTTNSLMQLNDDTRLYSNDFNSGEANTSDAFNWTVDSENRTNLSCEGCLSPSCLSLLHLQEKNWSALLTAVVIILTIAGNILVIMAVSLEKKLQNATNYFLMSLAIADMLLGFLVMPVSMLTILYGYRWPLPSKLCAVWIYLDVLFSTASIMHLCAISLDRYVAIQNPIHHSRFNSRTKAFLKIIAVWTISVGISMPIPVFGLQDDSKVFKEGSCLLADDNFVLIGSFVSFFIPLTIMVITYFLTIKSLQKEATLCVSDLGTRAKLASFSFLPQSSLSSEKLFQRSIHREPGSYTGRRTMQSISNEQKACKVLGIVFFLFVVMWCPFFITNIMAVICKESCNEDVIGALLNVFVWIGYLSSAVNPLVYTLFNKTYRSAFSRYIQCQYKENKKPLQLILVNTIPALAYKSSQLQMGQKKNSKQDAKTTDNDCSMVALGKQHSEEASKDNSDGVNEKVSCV
T1 sequence (P28335 33-458): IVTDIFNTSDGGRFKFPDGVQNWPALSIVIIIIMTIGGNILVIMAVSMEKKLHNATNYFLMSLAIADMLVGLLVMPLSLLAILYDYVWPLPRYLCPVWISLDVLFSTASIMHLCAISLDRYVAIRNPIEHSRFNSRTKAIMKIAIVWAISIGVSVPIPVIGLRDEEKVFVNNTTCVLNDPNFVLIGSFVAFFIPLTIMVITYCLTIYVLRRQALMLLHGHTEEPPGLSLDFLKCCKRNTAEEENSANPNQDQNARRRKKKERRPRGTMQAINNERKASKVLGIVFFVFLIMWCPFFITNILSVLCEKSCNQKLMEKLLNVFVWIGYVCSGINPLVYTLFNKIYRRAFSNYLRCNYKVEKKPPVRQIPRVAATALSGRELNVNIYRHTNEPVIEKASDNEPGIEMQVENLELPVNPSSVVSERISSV
T2 sequence (P41595 whole entry): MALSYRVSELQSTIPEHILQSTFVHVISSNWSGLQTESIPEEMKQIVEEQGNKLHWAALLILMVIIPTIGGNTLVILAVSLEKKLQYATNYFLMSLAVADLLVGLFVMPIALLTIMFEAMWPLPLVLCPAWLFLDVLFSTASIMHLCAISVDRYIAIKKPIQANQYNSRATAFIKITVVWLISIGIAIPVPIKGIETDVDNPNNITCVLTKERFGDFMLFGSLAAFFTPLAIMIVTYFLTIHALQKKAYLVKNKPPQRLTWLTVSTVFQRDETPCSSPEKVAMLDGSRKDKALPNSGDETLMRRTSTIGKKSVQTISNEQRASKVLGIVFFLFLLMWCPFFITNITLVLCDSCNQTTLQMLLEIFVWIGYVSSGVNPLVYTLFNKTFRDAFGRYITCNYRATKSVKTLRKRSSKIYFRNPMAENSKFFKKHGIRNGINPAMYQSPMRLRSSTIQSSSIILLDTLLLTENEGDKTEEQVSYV

CN(C)CCc1c[nH]c2cccc(O)c12 [psilocin]
agonist profile at 5-HT2AR, 5-HT2BR, and 5-HT2CR (in words) [1]: equipotent and equiefficacious agonist

COc1cc(C2CCCNC2)c(OC)cc1C#N (stereo not shown) [Compound 10eu, 2,5-Dimethoxy-4-(piperidin-3-yl)benzonitrile]
5-HT2AR pEC50 ± S.E.M. (human 5-HT2AR; Table S2): 6.56 ± 0.13
EC50 (human 5-HT2AR; [5]): 270 nM
EC50 (human 5-HT2CR [2]; [6]): > 50000 nM
IC50 (human 5-HT2CR [3]; [7]): ~15800 nM

COCCc1ccc(OCC(O)CNC(C)C)cc1 (stereo not shown) [Metoprolol]
Papp A→B at […] (MDR1 (P-gp)): 24.2 ×10⁻⁶ cm/s
recovery at […] (MDR1; read-out: Mean Recovery A to B): 97%
Rank Papp (MDR1-MDCKII): High

C[C@H]1O[C@@H](O[C@H]2[C@@H](O)C[C@H](O[C@H]3[C@@H](O)C[C@H](O[C@H]4CC[C@@]5(C)[C@H](CC[C@@H]6[C@@H]5C[C@@H](O)[C@]5(C)[C@@H](C7=CC(=O)OC7)CC[C@]65O)C4)O[C@@H]3C)O[C@@H]2C)C[C@H](O)[C@@H]1O [Digoxin]
Papp A→B at […] (MDR1 (P-gp)): 0.22 ×10⁻⁶ cm/s
Papp B→A at […] (MDR1 (P-gp)): 12.4 ×10⁻⁶ cm/s
recovery at […] (MDR1; read-out: Mean Recovery B to A): 92%
Rank Papp (MDR1-MDCKII): Low

COc1cc(C2CCCNC2)c(OC)cc1Cl (stereo not shown) [Compound 8eu, 3-(4-Chloro-2,5-dimethoxyphenyl)piperidine]
5-HT2AR pEC50 ± S.E.M. (human 5-HT2AR; Table S2): 7.18 ± 0.05
EC50 (human 5-HT2AR; [5]): 66 nM
EC50 (human 5-HT2CR [2]; [6]): > 50000 nM
IC50 (human 5-HT2CR [3]; [7]): 871 nM

COc1cc(C2CCCNC2)c(OC)cc1SC(C)C (stereo not shown) [Compound 17eu, 3-(4-(Isopropylthio)-2,5-dimethoxyphenyl)piperidine]
5-HT2AR pEC50 ± S.E.M. (human 5-HT2AR; Table S2): 6.81 ± 0.09
EC50 (human 5-HT2AR; [5]): 160 nM
EC50 (human 5-HT2CR [2]; [6]): > 10000 nM

COc1cc(C(F)(F)F)c(OC)cc1[C@@H]1CCCN(C)C1 [(S)-19, (S)-3-(2,5-Dimethoxy-4-(trifluoromethyl)phenyl)-1-methylpiperidine]
5-HT2AR Rmax (%) (human 5-HT2AR; Table 2): 19%
5-HT2AR Rmax ± S.E.M. (human 5-HT2AR; Table S2): 19 ± 2%
5-HT2CR pEC50 ± S.E.M. (human 5-HT2CR [2]; Table S2): 6.04 ± 0.03

COc1cc(C2CCCNC2)c(OC)cc1Br (stereo not shown) [Compound 6dis, 3-(4-Bromo-2,5-dimethoxyphenyl)piperidine]
EC50 (human 5-HT2AR; [8]): 370 nM
EC50 (human 5-HT2CR [2]; [6]): 1900 nM

COc1cc(C(F)(F)F)c(OC)cc1[C@H]1CCCN(C)C1 [(R)-19, (R)-3-(2,5-Dimethoxy-4-(trifluoromethyl)phenyl)-1-methylpiperidine]
5-HT2AR Rmax (%) (human 5-HT2AR; Table 2): 53%
5-HT2AR pEC50 ± S.E.M. (human 5-HT2AR; Table S2): 5.96 ± 0.09
5-HT2AR Rmax ± S.E.M. (human 5-HT2AR; Table S2): 53 ± 8%
EC50 (human 5-HT2CR [2]; 5-HT2CR EC50 (nM), Table 2, at least 3 independent experiments): > 10000 nM

COc1cc(C2CCCNC2)c(OC)cc1SC(C)C (stereo not shown) [Compound 17dis, 3-(4-(Isopropylthio)-2,5-dimethoxyphenyl)piperidine]
5-HT2AR pEC50 ± S.E.M. (human 5-HT2AR; Table S2): 6.54 ± 0.09
EC50 (human 5-HT2AR; [5]): 290 nM
5-HT2CR pEC50 ± S.E.M. (human 5-HT2CR [2]; Table S2): 5.64 ± 0.05
EC50 (human 5-HT2CR [2]; [9]): 2300 nM

CCSc1cc(OC)c(C2CCCNC2)cc1OC.Cl (stereo not shown) [Compound 16eu, 3-(2,5-Dimethoxy-4-(ethylthio)phenyl)piperidine Hydrochloride]
5-HT2AR pEC50 ± S.E.M. (human 5-HT2AR; Table S2): 7.42 ± 0.09
EC50 (human 5-HT2AR; [5]): 38 nM
5-HT2CR pEC50 ± S.E.M. (human 5-HT2CR [2]; Table S2): 6.25 ± 0.08
EC50 (human 5-HT2CR [2]; [9]): 570 nM

CCOc1cc(C(F)(F)F)c(OC)cc1C1CCCNC1.Cl (stereo not shown) [Compound 24eu, 3-(2-Ethoxy-5-methoxy-4-(trifluoromethyl)phenyl)piperidine Hydrochloride]
5-HT2AR Rmax (%) (human 5-HT2AR; Table 2): 40%
5-HT2AR pEC50 ± S.E.M. (human 5-HT2AR; Table S2): 7.42 ± 0.10
5-HT2AR Rmax ± S.E.M. (human 5-HT2AR; Table S2): 40 ± 3%
EC50 (human 5-HT2AR; [10]): 38 nM
EC50 (human 5-HT2CR [2]; 5-HT2CR EC50, Table S2): > 10000 nM

COc1cc(C2CCCNC2)c(OC)cc1Br (stereo not shown) [Compound 6eu, 3-(4-Bromo-2,5-dimethoxyphenyl)piperidine]
EC50 (human 5-HT2AR; [8]): 69 nM
agonist activity at 5-HT2CR (in words) (human 5-HT2CR [2]): devoid of measurable agonist activity
EC50 (human 5-HT2CR [2]; [6]): > 50000 nM
IC50 (human 5-HT2CR [3]; 5-HT2CR IC50, Table 1): 640 nM
IC50 (human 5-HT2CR [3]; [7]): 631 nM

COc1cc(C2CCCNC2)c(OC)cc1C#N (stereo not shown) [Compound 10dis, 2,5-Dimethoxy-4-(piperidin-3-yl)benzonitrile]
5-HT2AR pEC50 ± S.E.M. (human 5-HT2AR; Table S2): 5.66 ± 0.06
EC50 (human 5-HT2AR; [5]): 2200 nM
5-HT2CR pEC50 ± S.E.M. (human 5-HT2CR [2]; Table S2): ~ 5.0
EC50 (human 5-HT2CR [2]; [9]): ~10000 nM
EC50 (human 5-HT2CR [2]; read-out: 5-HT2CR EC50, Table S2): ~10000 nM

CC(C)(C)NCC(O)COc1cccc2c1CC(O)C(O)C2 (stereo not shown) [Nadolol]
Papp A→B at […] (MDR1 (P-gp)): 0.54 ×10⁻⁶ cm/s
recovery at […] (MDR1; read-out: Mean Recovery A to B): 93%
Rank Papp (MDR1-MDCKII): Low

COc1cc(C2CCCNC2)c(OC)cc1SC.Cl (stereo not shown) [Compound 15dis, 3-(2,5-Dimethoxy-4-(methylthio)phenyl)piperidine Hydrochloride]
5-HT2AR pEC50 ± S.E.M. (human 5-HT2AR; Table S2): 6.75 ± 0.06
EC50 (human 5-HT2AR; [5]): 180 nM
5-HT2CR pEC50 ± S.E.M. (human 5-HT2CR [2]; Table S2): 5.63 ± 0.03
EC50 (human 5-HT2CR [2]; [9]): 2300 nM

COc1cc(C2CCCNC2)ccc1C(F)(F)F.Cl (stereo not shown) [Compound 23dis, 3-(3-Methoxy-4-(trifluoromethyl)phenyl)piperidine Hydrochloride]
5-HT2AR Rmax (%) (human 5-HT2AR; Table 2): 65%
5-HT2AR pEC50 ± S.E.M. (human 5-HT2AR; Table S2): 5.61 ± 0.07
5-HT2AR Rmax ± S.E.M. (human 5-HT2AR; Table S2): 65 ± 3%
EC50 (human 5-HT2AR; [10]): 2500 nM
5-HT2CR Rmax (%) (human 5-HT2CR [2]; Table 2): 35%
5-HT2CR pEC50 ± S.E.M. (human 5-HT2CR [2]; Table S2): 5.85 ± 0.13
5-HT2CR Rmax ± S.E.M. (human 5-HT2CR [2]; Table S2): 35 ± 3%
EC50 (human 5-HT2CR [2]; [11]): 1400 nM

COc1cc(C2CCCNC2)c(OC)cc1I (stereo not shown) [Compound 9eu, 3-(4-Iodo-2,5-dimethoxyphenyl)piperidine]
5-HT2AR pEC50 ± S.E.M. (human 5-HT2AR; Table S2): 7.43 ± 0.02
EC50 (human 5-HT2AR; [5]): 37 nM
EC50 (human 5-HT2CR [2]; [6]): > 50000 nM
IC50 (human 5-HT2CR [3]; [7]): 1100 nM

COc1cc(C(F)(F)F)ccc1C1CCCNC1.Cl (stereo not shown) [Compound 22dis, 3-(2-Methoxy-4-(trifluoromethyl)phenyl)piperidine Hydrochloride]
5-HT2AR Rmax (%) (human 5-HT2AR; Table 2): 80%
5-HT2AR pEC50 ± S.E.M. (human 5-HT2AR; Table S2): 6.18 ± 0.07
5-HT2AR Rmax ± S.E.M. (human 5-HT2AR; Table S2): 80 ± 5%
EC50 (human 5-HT2AR; [10]): 660 nM
5-HT2CR pEC50 ± S.E.M. (human 5-HT2CR [2]; Table S2): 5.85 ± 0.05
EC50 (human 5-HT2CR [2]; [11]): 1400 nM

COc1cc(C(F)(F)F)c(OC)cc1CCN [Compound 18, 2-(2,5-Dimethoxy-4-(trifluoromethyl)phenyl)ethan-1-amine Hydrochloride, reference compound]
EC50 (human 5-HT2AR; 5-HT2AR pEC50 ± S.E.M., Table S2): 0.724 nM
fold higher agonist potency at 5-HT2AR than at 5-HT2CR (selectivity) (human 5-HT2AR; 5-HT2AR vs 5-HT2CR): 10 fold
5-HT2AR Rmax (%) (human 5-HT2AR; Table 2): 67%
5-HT2AR Rmax ± S.E.M. (human 5-HT2AR; Table S2): 67 ± 5%
EC50 (human 5-HT2CR [2]; 5-HT2CR pEC50 ± S.E.M., Table S2): 7.59 nM
5-HT2CR Rmax (%) (human 5-HT2CR [2]; Table 2): 71%
5-HT2CR Rmax ± S.E.M. (human 5-HT2CR [2]; Table S2): 71 ± 2%

COc1cc(CC(C)N)c(OC)cc1I (racemic) [(±)-DOI, 1-(4-iodo-2,5-dimethoxyphenyl)propan-2-amine, reference compound]
Ki (human 5-HT2CR [4]): 0.51 nM
Ki (human 5-HT2BR): 1.23 nM

Br.COc1cc(C2CCNC2)c(OC)cc1Br (stereo not shown) [Compound 5dis, 3-(4-Bromo-2,5-dimethoxyphenyl)pyrrolidine Hydrobromide]
5-HT2AR Rmax (%) (human 5-HT2AR; Table 1): 39 ± 4%
5-HT2AR pEC50 ± S.E.M. (human 5-HT2AR; Table S2): 8.11 ± 0.08
5-HT2AR Rmax ± S.E.M. (human 5-HT2AR; Table S2): 39 ± 4%
EC50 (human 5-HT2AR; [5]): 7.7 nM
Rmax at 5-HT2CR (human 5-HT2CR [2]): 73%
5-HT2CR Rmax (%) (human 5-HT2CR [2]; Table 1): 16 ± 3%
5-HT2CR pEC50 ± S.E.M. (human 5-HT2CR [2]; Table S2): 7.75 ± 0.08
5-HT2CR Rmax ± S.E.M. (human 5-HT2CR [2]; Table S2): 16 ± 3%
EC50 (human 5-HT2CR [2]; [9]): 18 nM
